The source of these data is patent publication US20200087374A1, “INTERACTION BETWEEN C-PEPTIDES AND ELASTIN RECEPTOR, A MODEL FOR UNDERSTANDING VASCULAR DISEASE” (Resiliun B.V., priority 2017, published 2020).

Data set [1] has as its system CD4+ immune cells. Put plainly: Boyden chamber migration of CD4+ immune cells. The data set is classed as cell-based. Particulars: for reduction/inhibition of C-peptide specific biological activity: preliminary.
Procedure: Human monocytes are isolated from freshly drawn blood of healthy volunteers using serial Ficoll/Percoll gradient centrifugation, as described elsewhere. Cells are cultured for 16 hours in RPMI-1640 media supplemented with 0.5% human serum to become quiescent after isolation. Purity of the cells is >95% as determined by flow cytometry analysis. Monocyte chemotaxis is assayed in a 48-well microchemotaxis chamber (Neuroprobe, Gaithersburg, Md.) in serum-free media. Wells in the upper and lower chamber are separated by a polyvinylpyrrolidone-free polycarbonate membrane (pore size 5 μm; Costar). Freshly isolated monocytes at a density of 5×10^5/mL are incubated for 2.5 hours with recombinant C-peptide (Sigma), before migrated cells on the bottom face of the filter are stained and counted under the light microscope. Maximal chemotactic activity is measured with 0.1 mmol/L N-formyl-methionyl-leucyl-phenylalanine (f-MLF; Sigma Chemical Co), and checkerboard analysis is used to distinguish chemotaxis from chemokinesis. […] Controls for BA-4 include mouse immunoglobulin G (IgG; PharMingen, San Diego, Calif.). Exposure of cells to lactose is used to specifically dissociate the 67-kD EBP. Controls for lactose included glucose, fructose, and mannose, none of which affect the 67-kD EBP. In each case, monocytes cells are exposed to the relevant concentrations of SEQ ID NO:41 (VGVAPG) (10-9 to 10-5 mol/L), antibodies (1:1000), or sugars (1 mmol/L) for 30 minutes before the chemotaxis assays are started. […] Chemotaxis is also assayed by a double micropore membrane system in modified Boyden chambers. […] The membranes are presoaked in bovine type I collagen (25 micro-g phosphate-buffered saline per ml) (Chemicon International, Temecula, Calif.) for 24 h at room temperature to facilitate the attachment of cells. The chambers are incubated for 18 h at 37° C. in 5% CO2-balanced air. The chambers are then disassembled, and the membrane pairs are stained with hematoxylin. The cell number of a number, such as five, random and nonoverlapping fields under a microscope is counted. For all experiments, medium alone in the bottom chamber may serve as the baseline control. To confirm directed cell migration, the concentration gradient between the upper and lower compartments may be abolished by adding various doses of elastin to the cell suspension. Chemotaxis is assayed as described above.
The conditions of data set [2]: in vivo; cited from earlier work.
The subject of data set [3] is arteriosclerotic lesion development. Particulars: mice; cited from earlier work.
Data set [4] relates to Human monocytes. As to the kind of experiment: Monocyte chemotaxis in 48-well microchemotaxis chamber. The class given is cell-based. Conditions: for induction of monocyte chemotaxis: stimulus in lower wells; for effect on monocyte chemotaxis induced by C-peptide: cells exposed 30 minutes before assay, C-peptide 0.1-10 nmol/L, antibodies 1:1000; for effect on monocyte chemotaxis induced by C-peptide / effect on monocyte chemotaxis in response to VGVAPG: sugars 1 mmol/L. As to the method: Human monocytes are isolated from freshly drawn blood of healthy volunteers using serial Ficoll/Percoll gradient centrifugation, as described elsewhere. Cells are cultured for 16 hours in RPMI-1640 media supplemented with 0.5% human serum to become quiescent after isolation. Purity of the cells is >95% as determined by flow cytometry analysis. Monocyte chemotaxis is assayed in a 48-well microchemotaxis chamber (Neuroprobe, Gaithersburg, Md.) in serum-free media. Wells in the upper and lower chamber are separated by a polyvinylpyrrolidone-free polycarbonate membrane (pore size 5 μm; Costar). Freshly isolated monocytes at a density of 5×10^5/mL are incubated for 2.5 hours with recombinant C-peptide (Sigma), before migrated cells on the bottom face of the filter are stained and counted under the light microscope. Maximal chemotactic activity is measured with 0.1 mmol/L N-formyl-methionyl-leucyl-phenylalanine (f-MLF; Sigma Chemical Co), and checkerboard analysis is used to distinguish chemotaxis from chemokinesis. Inhibition of chemotaxis is tested by competition with VGVAPG, a repetitive peptide sequence found in human and bovine elastin (Sigma Chemical Co), and BA-4, an antielastin-blocking antibody. Controls for BA-4 include mouse immunoglobulin G (IgG; PharMingen, San Diego, Calif.). Exposure of cells to lactose is used to specifically dissociate the 67-kD EBP. Controls for lactose included glucose, fructose, and mannose, none of which affect the 67-kD EBP. In each case, monocytes cells are exposed to the relevant concentrations of SEQ ID NO:41 (VGVAPG) (10-9 to 10-5 mol/L), antibodies (1:1000), or sugars (1 mmol/L) for 30 minutes before the chemotaxis assays are started. […] Monocytes in the upper wells of the assay chamber are exposed to varying concentrations of SEQ ID NO:41 (VGVAPG) for 30 minutes before stimulation by human recombinant C-peptide (0.1 nmol/L-10 nmol/L) in the lower wells. […] C-peptide-derived chemotactic activity is eliminated by competition with […]=SEQ ID NO:41 (VGVAPG), a repetitive peptide found in human elastin that binds to cellular elastin receptors, and decreases in the presence of BA-4, a monoclonal antibody that can block elastin peptide mediated chemotactic activity. Monocyte chemotaxis in response to both SEQ ID NO:41 (VGVAPG) and C-peptide is abolished in the presence of lactose, a galactosugar that specifically dissociates the 67-kD EBP, but it is unaffected by glucose, fructose, or mannose. […] Chemotaxis is also assayed by a double micropore membrane system in modified Boyden chambers. The lower compartment containing 180 micro-l of C-peptide or fragments thereof at various concentrations is separated from the upper compartment containing 200 micro-1 of cell suspension ([…] cells, such as endothelial cells or smooth muscle cells or pericytes or keratinocytes of fibroblasts or leukocytes per ml medium) by a 10 micro-m polycarbonate membrane (Millipore, Bedford, Mass.). The membranes are presoaked in bovine type I collagen (25 micro-g phosphate-buffered saline per ml) (Chemicon International, Temecula, Calif.) for 24 h at room temperature to facilitate the attachment of cells. The chambers are incubated for 18 h at 37° C. in 5% CO2-balanced air. The chambers are then disassembled, and the membrane pairs are stained with hematoxylin. The cell number of a number, such as five, random and nonoverlapping fields under a microscope is counted. For all experiments, medium alone in the bottom chamber may serve as the baseline control. To confirm directed cell migration, the concentration gradient between the upper and lower compartments may be abolished by adding various doses of elastin to the cell suspension. Chemotaxis is assayed as described above. Chemotaxis may also be studied in an ex vivo aortic ring assay measuring endothelial cell migration and proliferation

In data set [5] the test system is 30 mM glucose-induced vascular dysfunction in rats. Conditions: cited from earlier work; for normalization/prevention of glucose-induced vascular dysfunction: 30 mM glucose, rats; for potency relative to native C-peptide: vascular dysfunction model.
For data set [6], the system named is Na^+K^+ATPase. Conditions: rat renal tubule cells; cited from earlier work.
Data set [7] deals with human renal tubular cells. Conditions: cited from earlier work.
Data set [8] has as its system cell membrane-bound C-peptide. Conditions: cited from earlier work.
Data set [9] deals with MAP kinase signalling pathways. Particulars: cited from earlier work.
Data set [10] relates to Na(+),K(+)-ATPase. Conditions: cited from earlier work.
Data set [11] addresses T1, elastin receptor (Homo sapiens, UniProt P16278).
T1 sequence (P16278 29-546 isoform P16278-2 limits assumed): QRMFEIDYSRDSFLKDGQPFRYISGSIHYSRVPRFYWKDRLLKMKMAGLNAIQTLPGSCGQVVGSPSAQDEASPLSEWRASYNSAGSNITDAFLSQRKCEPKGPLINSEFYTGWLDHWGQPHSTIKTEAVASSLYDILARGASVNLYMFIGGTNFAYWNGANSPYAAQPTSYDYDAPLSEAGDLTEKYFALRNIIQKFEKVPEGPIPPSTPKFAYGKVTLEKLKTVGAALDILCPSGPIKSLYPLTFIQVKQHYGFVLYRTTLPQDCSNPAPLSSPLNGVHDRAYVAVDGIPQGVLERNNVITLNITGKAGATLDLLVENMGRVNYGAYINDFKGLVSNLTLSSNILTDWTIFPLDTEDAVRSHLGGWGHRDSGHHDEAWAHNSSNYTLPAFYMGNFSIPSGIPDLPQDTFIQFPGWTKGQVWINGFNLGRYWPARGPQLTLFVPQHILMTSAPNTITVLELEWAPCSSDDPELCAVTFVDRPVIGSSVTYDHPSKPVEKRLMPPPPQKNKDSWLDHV
Particulars: cited from earlier work.

Entries after “also recorded” stand apart in the source; their conditions may differ. Like-named read-outs stand apart in the source and are kept apart here.

For “EAEDLQVGQVELGGGPGAGSLQPLALEGSLQ [C-peptide]”, in data set [1] (C-peptide at 10 nM, 1% serum medium, in vitro), the “increase of migration of CD4+ immune cells” value came out at 100%. Also, in [2], the half-life was 30 min and the plasma half-life was roughly 30 min. For the same compound, the “arteriosclerotic lesion development / atherogenicity” value in [3] is listed as “promote experimental arteriosclerotic lesion development in mice; also recorded: atherogenic in mice”. In data set [4], the “checkerboard analysis: chemotaxis versus chemokinesis” value is “stimulates chemotaxis without a chemokinetic effect” and the “induction of monocyte chemotaxis” value is “stimulates a concentration-dependent increase in monocyte migration”.
For VGQVELGGGPGAGSLQPL [SEQ ID NO:175], the “normalization/prevention of glucose-induced vascular dysfunction” value (shortened to “normalization/prevention”) in data set [5] is listed as “significant normalization”.
As to “EVEDPQVPQLELGGGPEAGDLQTLALEVARQ [Rat C-peptide, rat C-peptide comprising hexapeptide LGGGPE]”, in data set [5], the “normalization/prevention” value is recorded as “active”.
For ELGGGPGAG [SEQ ID NO:9], in data set [6], the “Na+K+ATPase activity” value was “stimulate”.
On to EGSLQ [SEQ ID NO:6], for which the “intracellular Ca2+” value in data set [7] is recorded as “increases intracellular Ca(2+)”; in [7] (listed as SEQ NO:6) it was “may induce intracellular Ca2+ increases”. Also, the “displacement of cell membrane-bound C-peptide” value in [8] is on record as “displaces cell membrane-bound C-peptide”. Moreover, the “MAP kinase signalling pathways” value in data set [9] is on record as “stimulates MAP kinase signalling pathways”. Further, in data set [10], the “Na(+),K(+)-ATPase” value is given as “stimulates”.
For VGVAPG [SEQ ID NO:41], the “binding to elastin receptor” value in [11] is given as “binding has been demonstrated”. Further, in data set [3], the “arteriosclerotic lesion development / atherogenicity” value is given as “promote experimental arteriosclerotic lesion development in mice”. In data set [4], the “concentration of maximal chemotactic activity” value is 0.1 mmol/L, the “effect on monocyte chemotaxis induced by C-peptide” value (“effect … by C-peptide” for short) is reported as “eliminates monocyte chemotaxis induced by C-peptide” and the “induction of monocyte chemotaxis” value was “induces chemotaxis in a concentration-dependent manner”. Further, the “effect of preincubation on chemotactic response to f-MLF” value in data set [4] (preincubation of monocytic cells) was “does not alter the chemotactic response to f-MLF”. For the same compound, in data set [4] (same concentration of f-MLF), the “chemotactic potency compared with f-MLF” value is recorded as “considerably more potent than the same concentration of f-MLF”.
Turning to “EAEDLQVGQVELGGGPGAGSLQPL (EAEDLQVGQVELGGGPGAGSLQPLAL) [SEQ ID NO:17]”, in data set [5], the “normalization/prevention” value is reported as “significant normalization”.
On to `O=C(CO)[C@@H](O)[C@H](O)[C@H](O)CO` [fructose], for which, in [4], the “effect … by C-peptide” value was “unaffected” and the “effect on monocyte chemotaxis in response to VGVAPG” value is given as “unaffected”.
For the compound DLQVGQVELGGGPGAGSLQPL [SEQ ID NO:20], the “normalization/prevention” value in data set [5] is listed as “significant normalization”.
For the compound ELGGGPGAGSLQPL [SEQ ID NO:176], in [5], the “normalization/prevention” value was “significant normalization”.
As to “EAENPQAGAVELGGGLGGLQALALEGPPQ [pig C-peptide, pig C-peptide, midportion LGGGLG]”, in data set [5], the “normalization/prevention” value was “inactive”.
Consider `OC[C@H]1O[C@@H](O[C@H]2[C@H](O)[C@@H](O)C(O)O[C@@H]2CO)[C@H](O)[C@@H](O)[C@H]1O` (stereo partly shown) [lactose], for which, in data set [1] (in vitro), the “reduction/inhibition of C-peptide specific biological activity” value was “reduction of C-peptide specific biological activity”. Also, the “antagonism of elastin peptide (ERC-ligand) binding to elastin receptor/EBP” value (“antagonism … to elastin receptor/EBP” below) in data set [11] was “inhibited; also recorded: antagonized”. Moreover, the “antagonism … to elastin receptor/EBP” value in data set [11] (listed as Lactose) is given as “antagonise elastin peptide binding”. Further, in [4], the “effect … by C-peptide” value is “abolished” and the “effect on monocyte chemotaxis in response to VGVAPG” value is given as “abolished”.
As for “D-EAEDLQVGQVELGGGPGAGSLQPLALEGSLQ (all D-amino acids) [enantio C-peptide]”, in data set [5], the “normalization/prevention” value was “biologically active” and the “potency relative to native C-peptide” value is “equipotent to native C-peptide”.
Consider LGGGPGAGSLQPLALEGSLQ [SEQ ID NO:14], for which, in [5], the “normalization/prevention” value is reported as “significant normalization”.
Turning to GQVELGGGPGAGSLQPLALEGSLQ [SEQ ID NO:13], the “normalization/prevention” value in data set [5] is recorded as “significant normalization”.
On to GGGPGAG [SEQ ID NO:8], for which, in data set [5], the “normalization/prevention” value is reported as “normalize glucose-induced vascular dysfunction”.
Take “DLQVGQVELGGGPGAGSLQPLALEGSLQ [SEQ ID NO:10]”: in [5], the “normalization/prevention” value was “significant normalization”.
For the compound VVGSPSAQDEASPL [V14 peptide], the “C-peptide-induced CD4-migration antagonized and diminished” value in data set [1] (V14-peptide at 1.3 microM, C-peptide at 10 nM) is reported as greater than 50%. Also, the “reduction/inhibition of C-peptide specific biological activity” value in [1] (in vitro) is “inhibition of bioactivity of C-peptide”. Also, in data set [11], the “antagonism … to elastin receptor/EBP” value is given as “antagonise elastin peptide binding; also recorded: inhibited; also recorded: antagonized”.
As to “QLSGELALPQLSGAGPGGGLEVQGVQLDEAE (retro C-Peptide)”, in [5], the “normalization/prevention” value is “biologically active” and the “potency relative to native C-peptide” value was “equipotent to native C-peptide”.
